Calls of active or inactive are those of the source. No cut-off for these calls is given here.
Legend:
[1] = system: Mus musculus; test: Increase in peptide YY level in 3-day high fat diet fed C57BL/6 mouse at 10 mg/kg, po daily for 3 days; format: functional, organism-based; parameters: dose 10 mg/kg
[2] = system: Mus musculus; test: Decrease in plasma triglyceride level in […] C57BL/6 mouse at 10 mg/kg, po daily for 3 days measured after 6 hrs; format: functional
[3] = system: HepG2; test: Inhibition of apoB secretion in human HepG2 cells after 40 hrs by ELISA; format: functional, cell-based; conditions: HepG2, 40 h
[4] = Inhibition of MTP from dog liver microsomes by scintillation counting; parameters: species or system Canis lupus familiaris, Microsome
[5] = system: Mus musculus; test: Decrease in total food intake in 3-day high fat diet fed C57BL/6 mouse at 10 mg/kg, po daily for 3 days; format: functional
[6] = system: Mus musculus; test: Decrease in body weight in […] at 10 mg/kg, po daily for 3 days; format: functional, C57BL/6

| IC50 [3] [nM] | IC50 [4] [nM] | Compound | Activity [1] | Activity [2] | Activity [5] | Activity [6] |
| --- | --- | --- | --- | --- | --- | --- |
| 4.2 | 13 | CN(Cc1ccc(F)cc1)C(=O)[C@@H](NC(=O)c1nc2ccc(NC(=O)c3ccccc3-c3cn4ccccc4n3)cc2s1)c1ccccc1 | inactive | inactive | inactive | inactive |
| 6.9 | 16.9 | Cc1csc2nc(-c3ccccc3C(=O)Nc3ccc4nc(C(=O)N[C@H](C(=O)N(C)Cc5ccc(F)cc5)c5ccccc5)sc4c3)cn12 | inactive | inactive | inactive | inactive |

Reference: ChEMBL document CHEMBL1153899, “Discovery of benzothiazole derivatives as efficacious and enterocyte-specific MTP inhibitors” (Bioorg Med Chem Lett, 2009)
